# Experimental data: ChEMBL document CHEMBL1151144, “Annonaceous acetogenins: a review” (J Nat Prod, 1990)
# Experiments:
# [1] = Cytotoxicity against mouse 9PS cells; type: functional; settings: for EC50: Mus musculus, read-out: ED50 (the source's name)
# Artemia = assay: Toxicity against brine shrimp; type: organism-based; settings: in vivo
# [2] = In vivo antitumor activity against mouse 3PS cells at 1.4 mg/kg relative to control; type: functional
# Plasmodium falciparum [3] = assay: Antiplasmodial activity against chloroquine-sensitive Plasmodium falciparum D6; type: functional, organism-based
# [4] = (§1) In vivo antitumor activity against mouse 3PS cells at 0.95 mg/kg relative to control; type: functional
# [5] = Cytotoxicity against human 9KB cells; type: functional; settings: for EC50: Homo sapiens, 9KB, read-out: ED50 (the source's name)
# HT-29 = assay: Cytotoxicity against human HT-29 cells; type: functional; settings: for EC50: Homo sapiens, HT-29, read-out: ED50 (the source's name)
# Calliphora vicina [6] = assay: Pesticidal activity against Blowfly larvae assessed as mortality at 10000 ppm; type: functional
# [7] = Antimitotic activity in rat 9ASK cells assessed as reversal of astrocyte formation; type: functional
# Plasmodium falciparum [8] = assay: Antiplasmodial activity against chloroquine-sensitive Plasmodium falciparum W2; type: functional, organism-based
# [9] = as §1; type: functional; remark: listed apart in the source
# Aedes aegypti = assay: Pesticidal activity against Aedes aegypti larvae assessed as mortality at 10 ppm; type: functional
# [10] = Antimitotic activity in rat 9ASK cells assessed as reversal of astrocyte formation at 100 ug/mL; type: functional
# [11] = system: Agrobacterium tumefaciens; assay: Antitumor activity assessed as inhibition of Agrobacterium tumefaciens-induced tumor formation by potato disk assay; type: functional
# A549 = assay: Cytotoxicity against human A549 cells; type: functional; settings: for EC50: Homo sapiens, A549, read-out: ED50 (the source's name)
# Calliphora vicina [12] = assay: Pesticidal activity against Blowfly larvae assessed as mortality at 1% drug concentration; type: functional
# [13] = In vivo antitumor activity against mouse 3PS cells at 0.25 mg/kg relative to control; type: functional
# MCF7 = assay: Cytotoxicity against human MCF7 cells; type: functional; settings: for EC50: Homo sapiens, MCF7, read-out: ED50 (the source's name)
# L1210 [14] = assay: In vivo antitumor activity against mouse L1210 cells at 0.4 mg/kg relative to control; type: functional
# L1210 [15] = assay: Cytotoxicity against mouse L1210 cells; type: functional; settings: read-out: ED50 (the source's name)
# [16] = Antimitotic activity in rat 9ASK cells assessed as reversal of astrocyte formation at 10 ug/mL; type: functional
compound,measurement,setting,value
CCCCCCCCC[C@@H](OC(C)=O)[C@H](OC(C)=O)[C@@H]1CC[C@@H]([C@@H]2CC[C@@H]([C@@H](CCCCCCCCCCCCC3=CC(C)OC3=O)OC(C)=O)O2)O1 (stereo not given in full) [ROLLINICIN TRIACETATE],ED50,[1],2.6 ×10⁻⁴ ug/ml
CCCCCCCCCCCC[C@H](O)[C@@H]1CC[C@@H]([C@@H](O)CCCCCC(=O)CCCCC2CC(CC(C)=O)C(=O)O2)O1 (stereo not given in full) [SQUAMONE],LC50,Artemia,2.1 ppm
CCCCCCCCC[C@@H](O)[C@@H](O)[C@@H]1CC[C@@H]([C@@H]2CC[C@@H]([C@@H](O)CCCCCCCCCCCCC3=CC(C)OC3=O)O2)O1 (stereo not given in full) [ROLLINICIN],ED50,[1],2.9 ×10⁻⁸ ug/ml
CCCCCCCCCC[C@H](OC(C)=O)[C@H]1CC[C@H]([C@H]2CC[C@H]([C@H](O)CCCCCCCCCCCCC3=C[C@H](C)OC3=O)O2)O1 [UVARICIN],T/C,[2],157%
CCCCCCCCCCCC[C@@H](O)[C@H]1CC[C@H]([C@H](O)CCCC[C@H](O)CCCCC[C@@H](O)CC2=CC(C)OC2=O)O1 (stereo not given in full) [ANNONACIN],IC50,Plasmodium falciparum [3],1.3 µg/mL
same,IC90,Plasmodium falciparum [3],12.4 µg/mL
same,T/C,[4],124%
same,EC50,[5],0.001 µg/mL
same,EC50,HT-29,3 µg/mL
same,Activity,Calliphora vicina [6],100%
same,LC50,Artemia,3.3 ppm
same,Activity,[7],51%
same,ED50,[1],1 ×10⁻⁵ ug/ml
same,IC50,Plasmodium falciparum [8],1.51 µg/mL
same,IC90,Plasmodium falciparum [8],74.7 µg/mL
same,T/C,[9],124%
same,Activity,Aedes aegypti,70%
same,Activity,[10],15%
same,inhibition (INH),[11],72%
same,EC50,A549,0.001 µg/mL
same,Activity,Calliphora vicina [12],100%
CCCCCCCCCCCC[C@@H](O)[C@H]1CC[C@H]([C@H](O)CCCCC(=O)CCCCC[C@@H](O)CC2=C[C@H](C)OC2=O)O1 [ANNONACINONE],EC50,HT-29,1 µg/mL
same,ED50,[1],1 ×10⁻⁶ ug/ml
same,EC50,A549,0.1 µg/mL
CCCCCCCCCC[C@@H](O)[C@@H]1CC[C@H]([C@H]2CC[C@@H]([C@@H](O)CCCCCCCCCC[C@H](O)CC3=C[C@@H](C)OC3=O)O2)O1 [ROLLINIASTATIN 1],ED50,[1],4.5 ×10⁻⁵ ug/ml
same,T/C,[13],128%
CCCCCCCCCCCC[C@H](O)[C@@H]1CC[C@@H]([C@@H](O)CCCCC(=O)CCCCCC2CC(CC(C)=O)C(=O)O2)O1 (stereo not given in full) [ISOANNONACINONE],EC50,HT-29,0.009 µg/mL
same,EC50,[1],0.5 µg/mL
same,EC50,A549,0.07 µg/mL
CCCCCCCCCCCC[C@H](O)[C@@H]1CC[C@@H]([C@@H](O)CCCCC(O)CCCCCC2CC(CC(C)=O)C(=O)O2)O1 (stereo not given in full) [ISOANNONACIN],EC50,HT-29,0.002 µg/mL
same,EC50,[1],3 µg/mL
same,EC50,A549,0.02 µg/mL
CCCCCCCCCC[C@@H](OC(C)=O)[C@H]1CC[C@H]([C@@H](CC[C@@H](OC(C)=O)[C@@H]2CCC(CCCCCCC[C@@H](CC3=C[C@@H](C)OC3=O)OC(C)=O)O2)OC(C)=O)O1 (stereo not given in full) [BULLATALICIN TETRAACETATE],EC50,HT-29,1.35 µg/mL
same,EC50,MCF7,< 0.001 µg/mL
same,EC50,A549,< 0.001 µg/mL
CCCCCCCCCC[C@H](O)[C@H]1CC[C@H]([C@H]2CC[C@H]([C@H](O)CCCCCCCCCC[C@@H]3CC(CC(C)=O)C(=O)O3)O2)O1 (stereo not given in full) [BULLATACINONE],T/C,L1210 [14],144%
same,LC50,Artemia,0.003 ppm
same,inhibition (INH),[11],15%
CCCCCCC(O)CCCC(O)C1CCC(C2CCC(C(O)CCCCCCCCCCCCC3=CC(C)OC3=O)O2)O1 (stereo not given) [ISOROLLINICIN],EC50,[1],0.01 µg/mL
CCCCCCCCCC[C@@H](O)[C@@H]1CC[C@H]([C@H](O)CC[C@H](O)[C@@H]2CC[C@@H](CCCCCCC[C@@H](O)CC3=C[C@H](C)OC3=O)O2)O1 [SYLVATICIN],EC50,[5],< 0.001 µg/mL
same,EC50,HT-29,< 0.001 µg/mL
same,LC50,Artemia,26 ppm
same,EC50,A549,< 0.001 µg/mL
CCCCCCCCCC[C@H](O)[C@H]1CC[C@H]([C@H](O)CC[C@H](O)[C@@H]2CC[C@@H](CCCCCCC[C@@H](O)CC3=C[C@H](C)OC3=O)O2)O1 [BULLATALICIN],EC50,[5],> 10 µg/mL
same,ED50,HT-29,8.8 ×10⁻⁶ ug/ml
same,LC50,Artemia,0.154 ppm
same,EC50,MCF7,2.34 µg/mL
same,inhibition (INH),[11],63%
same,ED50,A549,2.34 ×10⁻⁷ ug/ml
CCCC(O)CCC(O)CCC(O)C1CCC(C2CCC(C(O)CCCCCCCCCCCCCC3CC(C)OC3=O)O2)O1 (stereo not given) [DIHYDROCHERIMOLINE],ED50,[5],2 ×10⁻⁸ ug/ml
same,EC50,HT-29,0.001 µg/mL
same,LC50,Artemia,4.02 ppm
same,EC50,[1],< 0.01 µg/mL
same,EC50,A549,0.001 µg/mL
CCCCCCCCCCCCCC[C@@H](O)[C@H]1CC[C@H]([C@H](O)CC[C@H](O)CCCCC[C@@H](O)CC2=C[C@H](C)OC2=O)O1 [GONIOTHALAMICIN],IC50,Plasmodium falciparum [3],1.08 µg/mL
same,IC90,Plasmodium falciparum [3],8.23 µg/mL
same,EC50,[5],< 0.01 µg/mL
same,Activity,Calliphora vicina [6],100%
same,LC50,Artemia,37 ppm
same,EC50,[1],< 0.1 µg/mL
same,IC50,Plasmodium falciparum [8],1.59 µg/mL
same,IC90,Plasmodium falciparum [8],23.6 µg/mL
same,Activity,Aedes aegypti,100%
same,inhibition (INH),[11],68%
CCCCCC[C@H](O)CCC[C@H](O)[C@H]1CC[C@H]([C@H]2CC[C@H]([C@H](O)CCCCCCCCCCCCC3=C[C@H](C)OC3=O)O2)O1 [SQUAMOCIN],EC50,L1210 [15],0.58 µg/mL
CCCCCCCCCCCC[C@@H](O)[C@H]1CC[C@H]([C@H](O)CC[C@H](O)[C@@H]2CC[C@@H](CCCCC[C@@H](O)CC3=C[C@H](C)OC3=O)O2)O1 [GIGANTECIN],ED50,[5],<1 ×10⁻⁵ ug/ml
same,ED50,HT-29,2.68 ×10⁻⁴ ug/ml
same,Activity,[16],31%
same,LC50,Artemia,222 ppm
same,ED50,MCF7,4.11 ×10⁻⁹ ug/ml
same,ED50,[1],<1 ×10⁻⁵ ug/ml
same,inhibition (INH),[11],83%
same,ED50,A549,2.19 ×10⁻⁷ ug/ml
CN(C)[C@@H]1C(O)=C(C(N)=O)C(=O)[C@@]2(O)C(O)=C3C(=O)c4c(O)cccc4[C@@](C)(O)[C@H]3C[C@@H]12 [TETRACYCLINE],IC50,Plasmodium falciparum [3],3.36 µg/mL
same,IC50,Plasmodium falciparum [8],5.39 µg/mL
CCCC(O)CCC(O)CCC(O)C1CCC(C2CCC(C(O)CCCCCCCCCCCCCC3=CC(C)OC3=O)O2)O1 (stereo not given) [CHERIMOLINE],ED50,[5],6 ×10⁻¹² ug/ml
same,EC50,HT-29,> 0.001 µg/mL
same,LC50,Artemia,1.24 ppm
same,EC50,[1],< 0.01 µg/mL
same,EC50,A549,0.001 µg/mL
